Measured values taken from ChEMBL document CHEMBL3885861, “Open TG-GATES”.

Species: Rattus norvegicus
Experiment: Open TG-GATES - Regimen: Daily Repeat
Type: toxicity, organism-based, Sprague-Dawley
Set-up: regimen Daily Repeat, gender Male, age 6 weeks
Settings: in vivo, po, 100 mg/kg, route gavage, dose level High; for APTT / Bas / Eos / Fbg / Hb / Ht / Lym / MCH / MCHC / MCV / Mono / Neu / PT / Plat / RBC / Ret / WBC: tissue Blood; for KIDNEY_L / KIDNEY_R / KIDNEY_TOTAL: tissue Kidney; for LIVER: tissue Liver; for A/G / ALP / ALT / AST / BUN / CRE / Ca / Cl / DBIL / GLC / IP / K / LDH / Na / PL / RALB / TBIL / TC / TG / TP / gamma-GTP: tissue Plasma

OCCOCCN1CCN(C(c2ccccc2)c2ccc(Cl)cc2)CC1 (configuration not stated) [HYDROXYZINE]
TERMINAL_BW (72 h, time 3 day): 215.1 g
APTT (72 h, time 3 day): 17.1 s
Bas (72 h, time 3 day): 0%
Eos (72 h, time 3 day): 0.8%
Fbg (72 h, time 3 day): 297 mg/dL
Hb (72 h, time 3 day): 13.6 g/dL
Ht (72 h, time 3 day): 40.5%
Lym (72 h, time 3 day): 73.4%
MCH (72 h, time 3 day): 20.9 pg
MCHC (72 h, time 3 day): 33.5%
MCV (72 h, time 3 day): 62.5 fL
Mono (72 h, time 3 day): 3.2%
Neu (72 h, time 3 day): 21.8%
PT (72 h, time 3 day): 15.7 s
Plat (72 h, time 3 day): 128.8 x10_4/uL
RBC (72 h, time 3 day): 648.2 x10_4/ul
Ret (72 h, time 3 day): 5.3%
WBC (72 h, time 3 day): 97.2 x10_2/uL
KIDNEY_L (72 h, time 3 day): 1 g
KIDNEY_R (72 h, time 3 day): 1 g
KIDNEY_TOTAL (72 h, time 3 day): 2 g
LIVER (72 h, time 3 day): 11.2 g
A/G (72 h, time 3 day): 0.8
ALP (72 h, time 3 day): 2293.8 IU/L
ALT (72 h, time 3 day): 42.6 IU/L
AST (72 h, time 3 day): 72.8 IU/L
BUN (72 h, time 3 day): 17.6 mg/dL
CRE (72 h, time 3 day): 0.2 mg/dL
Ca (72 h, time 3 day): 10.9 mg/dL
Cl (72 h, time 3 day): 104.8 meq/L
DBIL (72 h, time 3 day): 0.016 mg/dL
GLC (72 h, time 3 day): 170.8 mg/dL
IP (72 h, time 3 day): 7.8 mg/dL
K (72 h, time 3 day): 3.9 meq/L
LDH (72 h, time 3 day): 56.2 IU/L
Na (72 h, time 3 day): 142.6 meq/L
PL (72 h, time 3 day): 126.2 mg/dL
RALB (72 h, time 3 day): 2.6 g/dL
TBIL (72 h, time 3 day): 0.05 mg/dL
TC (72 h, time 3 day): 67.8 mg/dL
TG (72 h, time 3 day): 62.6 mg/dL
TP (72 h, time 3 day): 5.6 g/dL
gamma-GTP (72 h, time 3 day): 1 IU/L
TERMINAL_BW ([…], time 7 day): 246 g
TERMINAL_BW ([…], time 14 day): 300.3 g
TERMINAL_BW ([…], time 28 day): 378.6 g
APTT ([…], time 7 day): 18 s
Bas ([…], time 7 day): 0%
Eos ([…], time 7 day): 0.8%
Fbg ([…], time 7 day): 297 mg/dL
Hb ([…], time 7 day): 13.6 g/dL
Ht ([…], time 7 day): 40.3%
Lym ([…], time 7 day): 81%
MCH ([…], time 7 day): 21 pg
MCHC ([…], time 7 day): 33.7%
MCV ([…], time 7 day): 62.3 fL
Mono ([…], time 7 day): 2.2%
Neu ([…], time 7 day): 15.4%
PT ([…], time 7 day): 15.5 s
Plat ([…], time 7 day): 109.3 x10_4/uL
RBC ([…], time 7 day): 647.2 x10_4/ul
Ret ([…], time 7 day): 4.6%
WBC ([…], time 7 day): 79.7 x10_2/uL
APTT ([…], time 14 day): 18.5 s
Bas ([…], time 14 day): 0.4%
Eos ([…], time 14 day): 1%
Fbg ([…], time 14 day): 300.4 mg/dL
Hb ([…], time 14 day): 13.7 g/dL
Ht ([…], time 14 day): 40.2%
Lym ([…], time 14 day): 78%
MCH ([…], time 14 day): 20 pg
MCHC ([…], time 14 day): 34.2%
MCV ([…], time 14 day): 58.5 fL
Mono ([…], time 14 day): 3%
Neu ([…], time 14 day): 16.6%
PT ([…], time 14 day): 16.2 s
Plat ([…], time 14 day): 124.9 x10_4/uL
RBC ([…], time 14 day): 686.4 x10_4/ul
Ret ([…], time 14 day): 5.2%
WBC ([…], time 14 day): 128.4 x10_2/uL
APTT ([…], time 28 day): 22.4 s
Bas ([…], time 28 day): 0.4%
Eos ([…], time 28 day): 0.8%
Fbg ([…], time 28 day): 290.2 mg/dL
Hb ([…], time 28 day): 14.7 g/dL
Ht ([…], time 28 day): 42.3%
Lym ([…], time 28 day): 79.6%
MCH ([…], time 28 day): 18.5 pg
MCHC ([…], time 28 day): 34.8%
MCV ([…], time 28 day): 53.1 fL
Mono ([…], time 28 day): 2.4%
Neu ([…], time 28 day): 16.8%
PT ([…], time 28 day): 15.7 s
Plat ([…], time 28 day): 109.6 x10_4/uL
RBC ([…], time 28 day): 796.6 x10_4/ul
Ret ([…], time 28 day): 2.9%
WBC ([…], time 28 day): 135.7 x10_2/uL
KIDNEY_L ([…], time 7 day): 1.1 g
KIDNEY_R ([…], time 7 day): 1.1 g
KIDNEY_TOTAL ([…], time 7 day): 2.2 g
KIDNEY_L ([…], time 14 day): 1.3 g
KIDNEY_R ([…], time 14 day): 1.4 g
KIDNEY_TOTAL ([…], time 14 day): 2.7 g
KIDNEY_L ([…], time 28 day): 1.6 g
KIDNEY_R ([…], time 28 day): 1.5 g
KIDNEY_TOTAL ([…], time 28 day): 3.2 g
LIVER ([…], time 7 day): 15.2 g
LIVER ([…], time 14 day): 18.1 g
LIVER ([…], time 28 day): 21.7 g
A/G ([…], time 7 day): 0.8
ALP ([…], time 7 day): 2036.8 IU/L
ALT ([…], time 7 day): 34 IU/L
AST ([…], time 7 day): 61.4 IU/L
BUN ([…], time 7 day): 18 mg/dL
CRE ([…], time 7 day): 0.2 mg/dL
Ca ([…], time 7 day): 11 mg/dL
Cl ([…], time 7 day): 104.6 meq/L
DBIL ([…], time 7 day): 0.018 mg/dL
GLC ([…], time 7 day): 186 mg/dL
IP ([…], time 7 day): 7.9 mg/dL
K ([…], time 7 day): 4.4 meq/L
LDH ([…], time 7 day): 62 IU/L
Na ([…], time 7 day): 141.6 meq/L
PL ([…], time 7 day): 138.2 mg/dL
RALB ([…], time 7 day): 2.6 g/dL
TBIL ([…], time 7 day): 0.046 mg/dL
TC ([…], time 7 day): 76.8 mg/dL
TG ([…], time 7 day): 55 mg/dL
TP ([…], time 7 day): 5.8 g/dL
gamma-GTP ([…], time 7 day): 0.8 IU/L
A/G ([…], time 14 day): 0.8
ALP ([…], time 14 day): 2097.8 IU/L
ALT ([…], time 14 day): 39.6 IU/L
AST ([…], time 14 day): 66 IU/L
BUN ([…], time 14 day): 17.2 mg/dL
CRE ([…], time 14 day): 0.2 mg/dL
Ca ([…], time 14 day): 10.7 mg/dL
Cl ([…], time 14 day): 102.8 meq/L
DBIL ([…], time 14 day): 0.018 mg/dL
GLC ([…], time 14 day): 193 mg/dL
IP ([…], time 14 day): 7.6 mg/dL
K ([…], time 14 day): 4 meq/L
LDH ([…], time 14 day): 94.4 IU/L
Na ([…], time 14 day): 141.4 meq/L
PL ([…], time 14 day): 141.4 mg/dL
RALB ([…], time 14 day): 2.7 g/dL
TBIL ([…], time 14 day): 0.044 mg/dL
TC ([…], time 14 day): 75 mg/dL
TG ([…], time 14 day): 62.4 mg/dL
TP ([…], time 14 day): 5.9 g/dL
gamma-GTP ([…], time 14 day): 0.8 IU/L
A/G ([…], time 28 day): 0.8
ALP ([…], time 28 day): 1321.8 IU/L
ALT ([…], time 28 day): 33.2 IU/L
AST ([…], time 28 day): 58.8 IU/L
BUN ([…], time 28 day): 17.8 mg/dL
CRE ([…], time 28 day): 0.2 mg/dL
Ca ([…], time 28 day): 10.9 mg/dL
Cl ([…], time 28 day): 103.6 meq/L
DBIL ([…], time 28 day): 0.012 mg/dL
GLC ([…], time 28 day): 193.8 mg/dL
IP ([…], time 28 day): 7 mg/dL
K ([…], time 28 day): 4.5 meq/L
LDH ([…], time 28 day): 81.8 IU/L
Na ([…], time 28 day): 141.8 meq/L
PL ([…], time 28 day): 117.6 mg/dL
RALB ([…], time 28 day): 2.9 g/dL
TBIL ([…], time 28 day): 0.038 mg/dL
TC ([…], time 28 day): 64 mg/dL
TG ([…], time 28 day): 41.6 mg/dL
TP ([…], time 28 day): 6.4 g/dL
gamma-GTP ([…], time 28 day): 1 IU/L
